Article PMC10180076, “Novel Biologically Active N-Substituted Benzimidazole Derived Schiff Bases: Design, Synthesis, and Biological Evaluation” (Molecules, 2023)

Tests used:
[1] = test system: influenza A/H1N1 (A/Ned/378/05); test: Antiviral CPE reduction assay, influenza A/H1N1 in MDCK; assay type: cell-based; conditions: Influenza A virus, MDCK cells, 100 CCID50, MTS
sindbis virus = test: Antiviral CPE reduction assay, Sindbis virus in Huh-7; assay type: cell-based; conditions: Huh-7 cells, 100 CCID50, MTS
[2] = test system: herpes simplex virus-1 (HSV-1 KOS); test: Antiviral CPE reduction assay, HSV-1 KOS in HEL 299; assay type: cell-based; conditions: Human alphaherpesvirus 1; HEL 299 cells, 100 CCID50, MTS
in vitro [3] = conditions: human
[4] = test system: human coronavirus HCoV-NL63; test: Antiviral CPE reduction assay, HCoV-NL63 in Huh-7; assay type: cell-based; conditions: Huh-7 cells, 100 CCID50, MTS
[5] = test system: human coronavirus HCoV-OC43; test: microbe, parasite or virus in culture; assay type: cell-based; conditions: Betacoronavirus 1, OC43; HEL 299 cells, 100 CCID50, MTS; read-out: Antiviral Activity (EC50/μM) HCoV OC43 HEL 299
in vitro [6] = conditions: dog
[7] = test system: human coronavirus HCoV-229E; test: organism not typed; assay type: cell-based; conditions: HEL 299 cells, 100 CCID50, MTS; read-out: Antiviral Activity (EC50/μM) HCoV 229E HEL 299
[8] = test system: yellow fever virus (YFV 17D); test: microbe, parasite or virus in culture; assay type: cell-based; conditions: Huh-7, read-out: Antiviral Activity (EC50/μM) YFV 17D Huh-7
[9] = test system: respiratory syncytial virus A (Long); test: Antiviral CPE reduction assay, RSV A in HEL 299; assay type: cell-based; conditions: human respiratory syncytial virus; HEL 299 cells, 100 CCID50, MTS
in vitro [10] = conditions: human; remark: listed apart in the source
Zika virus (Mr776) = test: Antiviral CPE reduction assay, Zika virus in Huh-7; assay type: cell-based; conditions: Huh-7 cells, 100 CCID50, MTS
[11] = test system: influenza A/H3N2 (A/HK/7/87); test: Antiviral CPE reduction assay, influenza A/H3N2 in MDCK; assay type: cell-based; conditions: Influenza A virus, MDCK cells, 100 CCID50, MTS
[12] = test system: influenza B (B/Ned/537/05); test: Antiviral CPE reduction assay, influenza B in MDCK; assay type: cell-based; conditions: Influenza B virus; MDCK cells, 100 CCID50, MTS
[13] = test system: K-562, chronic myeloid leukemia; test: Proliferation assay (MTS, 72 h), K-562; assay type: cell-based, human; conditions: Homo sapiens, K562
From the text: (§1) Human cancer cells used in this manuscript, namely Capan-1, HCT-116, NCI-H460, LN-229, HL-60, K-562, and Z-138, were acquired from the American Type Culture Collection (ATCC, Manassas, VA, USA), while the DND-41 cell line was purchased from the Deutsche Sammlung von Mikroorganismen und Zellkulturen (DSMZ Leibniz-Institut, Braunschweig, Germany). Culture media were purchased from Gibco Life Technologies, Merelbeke, Belgium, and supplemented with 10% fetal bovine serum (HyClone, Cytiva, Marlborough, MA, USA). Vincristine and docetaxel, which were used as the reference inhibitors, were purchased from Selleckchem (Munich, Germany). Stock solutions were prepared in DMSO.
(§2) Adherent cell lines LN-229, HCT-116, and NCI-H460 and Capan-1 cells were seeded at a density between 500 and 1500 cells per well, in 384-well tissue culture plates (Greiner, Kremsmünster, Austria). After overnight incubation, the cells were treated with seven different concentrations of the test compounds, ranging from 100 to 0.006 µM.
(§3) Suspension cell lines HL-60, K-562, Z-138, and DND-41 were seeded at densities ranging from 2500 to 5500 cells per well in 384-well culture plates containing the test compounds at the same concentration points. The cells were incubated for 72 h with the compounds and were then analyzed using the CellTiter 96® AQueous One Solution Cell Proliferation Assay (MTS) reagent (Promega, Madison, WI, USA) according to the manufacturer’s instructions. […] The compounds were tested in two independent experiments.

[14] = test system: DND-41, acute lymphoblastic leukemia; test: Proliferation assay (MTS, 72 h), DND-41; assay type: cell-based, human; conditions: Homo sapiens, DND41
From the text: as §1, §2, §3

[15] = test system: Z-138, non-Hodgkin lymphoma; test: Proliferation assay (MTS, 72 h), Z-138; assay type: cell-based, human; conditions: Homo sapiens, Z-138
From the text: as §1, §2, §3

[16] = test system: HCT-116, colorectal carcinoma; test: Proliferation assay (MTS, 72 h), HCT-116; assay type: cell-based, human; conditions: Homo sapiens, HCT-116
From the text: as §1, §2, §3

NCI-H460, lung carcinoma = test: Proliferation assay (MTS, 72 h), NCI-H460; assay type: cell-based, human; conditions: Homo sapiens, NCI-H460
From the text: as §1, §2, §3

LN-229, glioblastoma = test: Proliferation assay (MTS, 72 h), LN-229; assay type: cell-based, human; conditions: Homo sapiens, LN-229
From the text: as §1, §2, §3

[17] = test system: Capan-1, pancreatic adenocarcinoma; test: Proliferation assay (MTS, 72 h), Capan-1; assay type: cell-based, human; conditions: Homo sapiens, CAPAN-1
From the text: as §1, §2, §3

[18] = test system: HL-60, acute myeloid leukemia; test: Proliferation assay (MTS, 72 h), HL-60; assay type: cell-based, human; conditions: Homo sapiens, HL-60
From the text: as §1, §2, §3

Structure (SMILES)	EC50 [1] [µM]	EC50 (sindbis virus) [µM]	EC50 [2] [µM]	CC50 (in vitro [3]) [µM]	EC50 [4] [µM]	EC50 [5] [µM]	CC50 (in vitro [6]) [µM]	EC50 [7] [µM]	EC50 [8] [µM]	EC50 [9] [µM]	CC50 (in vitro [10]) [µM]	EC50 (Zika virus (Mr776)) [µM]	EC50 [11] [µM]	EC50 [12] [µM]	IC50 [13] [µM]	IC50 [14] [µM]	IC50 [15] [µM]	IC50 [16] [µM]	IC50 (NCI-H460, lung carcinoma) [µM]	IC50 (LN-229, glioblastoma) [µM]	further results
Cn1c(N)nc2ccc(C#N)cc21 [Compound 22, 2-amino-6-cyano-1-methylbenzimidazole]	> 100	> 100	> 100	> 100	> 100	> 100	> 100	> 100	> 100	78.7	> 100	46.4	> 100	> 100							
CC(C)Cn1c(/N=C/c2ccc(N(C)C)cc2)nc2ccc(C#N)cc21 [Compound 29, (E)-2-((4-(Dimethylamino)benzylidene)amino)-1-isobutyl-1H-benzo[d]imidazole-6-carbonitrile]	94.1	> 100	> 100	> 100	79.8	> 100	> 100	> 100	> 100	> 100	> 100	> 100	> 100	> 100	> 100	> 100	> 100	> 100	> 100	> 100	IC50 [17]: > 100 µM; IC50 [18]: 42.8 µM; melting point: 283 to 285 °C
CCN(CC)c1ccc(/C=N/c2nc3ccc(C#N)cc3n2C)c(O)c1 [Compound 36, (E)-2-((4-(Diethylamino)-2-hydroxybenzylidene)amino)-1-methyl-1H-benzo[d]imidazole-6-carbonitrile]	> 100	> 100	> 100	> 100	> 100	> 100	> 100	88.4	> 100	> 100	> 100	> 100	> 100	> 100	> 100	41.4	> 100	> 100	> 100	> 100	IC50 [17]: > 100 µM; IC50 [18]: > 100 µM
CN(C)c1ccc(/C=N/c2nc3ccc(C#N)cc3n2C)cc1 [Compound 34, (E)-2-((4-(Dimethylamino)benzylidene)amino)-1-methyl-1H-benzo[d]imidazole-6-carbonitrile]	> 100	> 100	> 100	> 100	82.8	> 100	> 100	> 100	> 100	> 100	> 100	> 100	> 100	83.5	> 100	> 100	> 100	> 100	> 100	> 100	IC50 [17]: > 100 µM; IC50 [18]: > 100 µM
Cn1c(N)nc2ccccc21 [Compound 18, 2-amino-1-methylbenzimidazole]	> 100	> 100	> 100	> 100	> 100	> 100	> 100	> 100	> 100	> 100	> 100	43.1	> 100	> 100							
O=c1[nH]c(=O)n([C@H]2C[C@H](O)[C@@H](CO)O2)cc1/C=C/Br [BVDU, brivudine, reference compound]			0.05								> 100										
CC(C)Cn1c(N)nc2ccccc21 [Compound 17, 2-amino-1-isobutylbenzimidazole]	> 100	> 100	> 100	> 100	> 100	> 100	> 100	78.9	> 100	> 100	> 100	> 100	> 100	> 100							
CCC(CC)COC(=O)[C@H](C)N[P@](=O)(OC[C@H]1O[C@@](C#N)(c2ccc3c(N)ncnn23)[C@H](O)[C@@H]1O)Oc1ccccc1 [Remdesivir, remdesivir, reference compound]		> 10		> 10	0.03	0.06		0.06	6.2	0.03	> 10	0.7									
CC(C)Cn1c(/N=C/c2ccc([N+](=O)[O-])cc2)nc2ccc(C#N)cc21 [Compound 32, (E)-1-Isobutyl-2-((4-nitrobenzylidene)amino)-1H-benzo[d]imidazole-6-carbonitrile]	> 100	> 100	> 100	90.1	> 100	68.7	> 100	38.5	> 100	> 100	> 100	> 100	> 100	> 100	> 100	> 100	> 100	> 100	> 100	> 100	IC50 [17]: > 100 µM; IC50 [18]: > 100 µM; melting point: 277 to 279 °C
